Test results taken from patent US20240085429A1, “ALTERING PROTEIN FUNCTION BY PHARMACOLOGICAL TARGETING OF MEMBRANE DOMAINS” (University of Virginia Patent Foundation, priority 2021, published 2024).

System: GPMVs isolated from HeLa cells
Experiment: High-throughput screen of the Cayman bioactive lipid library for effects on GPMV phase behavior (% phase separated vesicles, NBD-DSPE phase preference)
Parameters: species or system human
Conditions: HeLa GPMVs, RT; for Effect on % phase separated vesicles: final drug concentration 1 μM, NBD-DSPE channel; for % phase separated z-score / Pordered z-score: Table 4; for % phase separated z-score / Pordered z-score / Effect on Pang(ϕ): final 1 μM; for Pordered z-score: NBD-DSPE; for Effect on Pang(ϕ): NBD-DSPE raft phase preference
Procedure: This approach is not practical for high throughput screening applications, which typically are performed at a single temperature. Changes in the percentage of phase-separated GPMVs were monitored at a single temperature in response to the addition of small molecules as a surrogate for measuring Tmisc directly (FIG. 1A). This approach requires that a significant fraction of GPMVs are phase separated under control conditions, such that experimentally-induced changes can be readily detected.
In phase separated vesicles these markers are enriched in their preferred domains, such that a given vesicle contains a co-existing NBD-DSPE-rich phase and a DiD-rich phase. In contrast, NBD-DSPE and DiD colocalize in a single uniform phase in GPMVs that are not phase separated. We also optimized conditions to isolate and plate GPMVs in multi-well plates.
To provide proof-of-concept, the Cayman lipid library containing ˜850 bioactive lipid-like compounds in the Vanderbilt High-throughput Screening Facility was screened, using […] of each compound across three independent screens. All screens were carried out using an automated microscope/high-content imaging system and robotic plate handler at RT. […] Compounds were initially scored based on their capacity to alter the percentage of phase separated vesicles (FIG. 2A).
HeLa cells were obtained from ATCC (cat #CCL-2) and cultured at 37° C. in 5% CO2 in a humidified tissue culture incubator. […] In brief, cells were plated in 150 mm tissue culture dishes the day before the experiment, to yield a confluence of 70-80% the day of the experiment. To generate GPMVs, cells were rinsed twice in 10 ml of GPMV buffer (2 mM DTT, 25 mM formaldehyde, 150 mM NaCl, 10 mM HEPES, 2 mM CaCl2), pH=7.4) and subsequently incubated in 12 ml of GPMV buffer at 37° C. with gentle shaking at 70 rpm for 1.5 h. The raft marker NBD-DSPE (1,2-distearoyl-sn-glycero-3-phosphoethanolamine-N-(7-nitro-2-1,3-benzoxadiazol-4-yl; Avanti Polar Lipids) and the non-raft marker DiD (1,1′-dioctadecyl-3,3,3′,3′-tetramethylindodicarbocyanine perchlorate; cat #D307 Thermo Scientific) were added from stock solutions in ethanol to the GPMV suspension at final concentrations of 5-6 μg/ml and 1 μg/ml, respectively, for the initial screenings. For some experiments, cells were prelabelled with 5 μg/ml DiD for 8 min at 4° C. and washed several times prior to GPMVs generation. Screening was performed the same day that GPMVs were generated.
[…] GPMVs suspension in GPMV buffer was then added to each well of a 96-well plate to obtain a final drug concentration of 1 μM. The GPMVs were allowed to settle to the bottom of the plates for 1.5 h prior to imaging. Samples were prepared and imaged at RT. The screen was repeated on three different days using three separately prepared batches of GPMVs (3 biological replicates).
Image acquisition was performed with an ImageXpress Micro XL automated microscope (Molecular Devices) using a Nikon 40X 0.6 NA Super Plan Fluor ELWD objective and a Lumencor Sola solid-state light source. Laser autofocus was employed at each site to obtain the best focus z-plane for each channel. […] Sixteen sites were captured per well using a 4.2 MP widefield scientific cMOS camera with a camera binning of 1. Each plate took approximately 1.3 h to image. Multiple plates were loaded to a plate carousel (ThermoScientific), shuttled to/from the ImageXpress via a ThermoScientific CRS F3 robot arm, and automatically run through the Momentum scheduling software (Thermo). To analyze the data, images and metadata were exported as TIFF files and subjected to image analysis using a custom MATLAB-based program as described below.

Compound	Effect on % phase separated vesicles	% phase separated z-score	Pordered z-score	Effect on Pang(ϕ)
CCCCCCCCCCCCCCCCOC[C@H](COP(=O)([O-])OCC[N+](C)(C)C)OC(C)=O [PAF C-16, 1-O-hexadecyl-2-O-acetyl-sn-glyceryl-3-phosphorylcholine]	↓	−2.00	1.87	
COc1ccc(-c2nc(C(=O)N3CCN(C)CC3)sc2-c2ccc(OC)cc2)cc1.Cl [FR122047 (hydrochloride), 1-[[4,5-bis(4-methoxyphenyl)-2-thiazolyl]carbonyl]-4-methyl-piperazine, monohydrochloride]		0.12	−2.03	↓
Br.CCSC(=N)N [S-ethyl Isothiourea (hydrobromide)]		0.85	2.57	↑
CC1(COc2ccc(CC3SC(=O)NC3=O)cc2)CCCCC1 (stereo not shown) [Ciglitazone]		−2.73	−1.71	
CCCCCCCCCCCCCCCC(=O)NCCS(=O)(=O)O [N-Palmitoyl Taurine]	↑	2.19	1.66	
CCCCCCCC/C=C\CCCCCCCC(=O)OC[C@@H](COP(O)(O)=S)OC.CCN(CC)CC.CCN(CC)CC [(2S)-OMPT, 9Z-octadecenoic acid, (2S)-3-[(hydroxymercaptophosphinyl)oxy]-2-methoxypropyl ester, triethyl ammonium salt (1:2)]	↓	−2.12	−0.27	
CCCCCCCCCCCCCCCCCC(=O)NCCS(=O)(=O)O [N-Stearoyl Taurine]	↑	3.21	2.89	↑
CCCCC/C=C\C/C=C\CCCCCCCCCC(=O)O [11(Z),14(Z)-Eicosadienoic Acid]	↓	−2.15	−0.46	
CCCCCCCCCCCCCCCCOCC(COP(=O)([O-])OCC[N+](C)(C)C)SC(C)=O (stereo not shown) [2-thio-PAF, 1-O-hexadecyl-2-deoxy-2-thio-S-acetyl-sn-glyceryl-3-phosphorylcholine]	↓	−3.15	−0.72	
CCCCCCCCCCCCC/C=C/[C@@H](O)[C@H](CO)NC(=O)CCCCCCC [C8 Ceramide (d18:1/8:0)]	↓	−2.87	−0.72	
CCCCCCCCCCCCCCCCSP(=O)([O-])OCC[N+](C)(C)C [thio-Miltefosine]	↑	2.12	2.78	↑
COc1ccc(/C=C\c2cc(OC)cc(OC)c2)cc1 [cis-trismethoxy Resveratrol]	↓	−2.45	−1.61	
O=c1[nH]c(-c2ccc(C(F)(F)F)cc2)nc2c1CSCC2 [XAV939, 3,5,7,8-tetrahydro-2-[4-(trifluoromethyl)phenyl]-4H-thiopyrano[4,3-d]pyrimidin-4-one]	↑	2.33	0.58	
CCCCCCCCCCCCCCCCOC[C@H](COP(=O)([O-])OCC[N+](C)(C)C)OC(=O)NC [Methylcarbamyl PAF C-16]		−0.58	2.20	↑
CCCCCCCCCCCCC/C=C/[C@@H](O)[C@H](CO)N(C)C [N,N-Dimethylsphingosine (d18:1)]	↓	−2.09	−0.70	
Cl.c1cc(N2CCNCC2)c2cnccc2c1 [8-piperazin-1-yl-Isoquinoline (hydrochloride)]	↑	2.14	1.61	
CC(C)c1ccc2c(c1)c(SC(C)(C)C)c(CC(C)(C)C(=O)O)n2Cc1ccc(Cl)cc1 [MK-886, 1-[(4-chlorophenyl)methyl]-3-[(1,1-dimethylethyl)thio]-α,α-dimethyl-5-(1-methylethyl)-1H-indole-2-propanoic acid]		0.67	2.10	↑
CCCCCCCC/C=C\CCCCCCCC(=O)N[C@H](CO)c1ccc(O)cc1 [OMDM-1, (S)-N-(1-(4-hydroxyphenyl)-2-hydroxyethyl) oleamide]	↓	−2.62	−0.54	
C=C(C)[C@@H]1CCC(C)=C[C@H]1c1c(C)cc(O)cc1O [O-1602, 5-methyl-4-[(1R,6R)-3-methyl-6-(1-methylethenyl)-2-cyclohexen-1-yl] -1,3-benzenediol]	↓	−2.10	−0.27	
(−)-Epigallocatechin Gallate	↑	4.33	1.42	
CN(C)S(=O)(=O)c1ccc2c(c1)C(=Cc1cc3c([nH]1)CCCC3)C(=O)N2 [SU6656, 2,3-dihydro-N,N-dimethyl-2-oxo-3-[(4,5,6,7-tetrahydro-1H-indol-2-yl)methylene]-1H-indole-5-sulfonamide]	↓	−2.06	−0.42	
CCCCC/C=C\C/C=C\C/C=C\C/C=C\CCCC(=O)NCCF [Arachidonoyl-2′-Fluoroethylamide]		1.90	2.38	↑
CCCCCCCCCCCC1NC(C(=O)O)CS1 (stereo not shown) [CAY10444, 2-undecyl-thiazolidine-4-carboxylic acid]		−1.61	−2.04	↓
CCCCCCCCCCCCCCCCOC[C@H](COP(=O)([O-])OCC[N+](C)(C)C)OC [2-O-methyl PAF C-16, 1-O-hexadecyl-2-O-methyl-sn-glyceryl-3-phosphorylcholine]		−1.06	2.68	↑
CCCCCCCCCCCCCCOc1ccc(C(=O)O)o1 [TOFA, 5-(Tetradecyloxy)-2-furancarboxylic acid]	↓	−3.41	−1.20	
